For series [1], the system named is MIA PaCa-2. The experiment in a line: Cytotoxicity against human MIAPaCa2 cells assessed as growth inhibition at 10 uM measured after 48 hrs by MTT assay relative to control. Type of series: functional. The conditions noted are these: for inhibition of growth at 10 µM: MIA PaCa-2, 48 h, read-out: GI.
Series [2] has as its system HepG2. The experiment in a line: Cytotoxicity against human HepG2 cells assessed as growth inhibition at 10 uM measured after 48 hrs by MTT assay relative to control. It is filed as functional. To be noted: for inhibition of growth at 10 µM: HepG2, 48 h, read-out: GI. (Tetrazolium dyes change colour on reduction, which living cells bring about.)
Series [3] has as its system MCF7. In words: Cytotoxicity against human MCF7 cells assessed as growth inhibition at 10 uM measured after 48 hrs by MTT assay relative to control. It is filed as functional. The conditions noted are these: for inhibition of growth at 10 µM: MCF7, 48 h, read-out: GI.
Series [4] can be described thus: Cytotoxicity against human FR2 cells assessed as growth inhibition at 10 uM measured after 48 hrs by MTT assay relative to control. To be noted: for inhibition at 48 h, 10 µM: FR2 cells, read-out: GI; for growth inhibition (GI): fr2, 48 h, 10 µM. It is filed as cell-based.
Series [5] has as its system A549. The experiment in a line: Cytotoxicity against human A549 cells assessed as growth inhibition at 10 uM measured after 48 hrs by MTT assay relative to control. The conditions noted are these: for inhibition of growth at 10 µM: A549, 48 h, read-out: GI. Type of series: functional.
Series [6] deals with MCF7. The experiment in a line: Cytotoxicity against human MCF7 cells measured after 48 hrs by MTT assay. It is filed as functional, cell-based. The conditions noted are these: MCF7, 48 h.
Series [7] relates to A549. In words: Cytotoxicity against human A549 cells measured after 48 hrs by MTT assay. It is filed as functional, cell-based. To be noted: A549, 48 h.
Series [8] concerns HepG2. The experiment in a line: Cytotoxicity against human HepG2 cells measured after 48 hrs by MTT assay. Type of series: functional, cell-based. The conditions noted are these: HepG2, 48 h.
Series [9] relates to MIA PaCa-2. In words: Cytotoxicity against human MIAPaCa2 cells measured after 48 hrs by MTT assay. It is filed as functional, cell-based. To be noted: MIA PaCa-2, 48 h.
Series [10] is described as follows: Cytotoxicity against human FR2 cells measured after 48 hrs by MTT assay. Type of series: cell-based. The conditions noted are these: FR2, 48 h.

Activity calls are given as the source filed them. The calls are words filed in the database; no cut-off is given here.

Consider `O=C(/C=C/c1ccc(OCc2cn(Cc3ccccc3Br)nn2)cc1)c1ccc(Br)cc1`, for which the inhibition of growth at 10 µM turned out to be 43% with MIA PaCa-2 [1], 34% in the series on HepG2 [2], 44% in the series on MCF7 [3] and 44% in the series with A549 [5]. Besides, the inhibition at 48 h, 10 µM in [4] was found to be 11%.

With `O=C(/C=C/c1ccc(OCc2cn(Cc3cccc(Br)c3)nn2)cc1)c1ccc(Br)cc1`, the inhibition of growth at 10 µM in the series on MIA PaCa-2 [1] worked out at 43%; with HepG2 [2] it was 25%; in the series on MCF7 [3] it was 36%; with A549 [5], 44%. In addition, the inhibition at 48 h, 10 µM in series [4] turned out to be 9%.

Take `O=C(/C=C/c1ccc(OCc2cn(Cc3ccc(Br)cc3)nn2)cc1)c1ccc([N+](=O)[O-])cc1`: the inhibition of growth at 10 µM in the series on MIA PaCa-2 [1] was determined as 17%; in the series on HepG2 [2], 21%; in the series on MCF7 [3] it was 18%; with A549 [5] it was 18%. Also, the inhibition at 48 h, 10 µM in series [4] was 10%.

On to `C#CCOc1ccc(/C=C/C(=O)c2ccc([N+](=O)[O-])cc2)cc1`, for which the inhibition of growth at 10 µM came out at 42% with MIA PaCa-2 [1], 27% in the series with HepG2 [2], 44% in the series on MCF7 [3] and 33% in the series on A549 [5]. Moreover, the inhibition at 48 h, 10 µM in series [4] is 2%.

As for `O=C(/C=C/c1ccc(OCc2cn(Cc3ccc(F)cc3)nn2)cc1)c1ccc([N+](=O)[O-])cc1`, the inhibition of growth at 10 µM in the series with MIA PaCa-2 [1] came out at 44%; in the series with HepG2 [2], 25%; with MCF7 [3] it was 38%; in the series with A549 [5], 34%. In addition, the inhibition at 48 h, 10 µM in series [4] was 8%.

On to `O=C(/C=C/c1ccc(OCc2cn(Cc3ccc(Br)cc3)nn2)cc1)c1ccc(Br)cc1`, for which the inhibition of growth at 10 µM in the series on MIA PaCa-2 [1] came out at 29%; in the series on HepG2 [2], 22%; in the series with MCF7 [3] it was 23%; in the series on A549 [5], 27%. Further, the inhibition at 48 h, 10 µM in [4] stood at 11%.

Consider `O=C(/C=C/c1ccc(OCc2cn(Cc3cccc(Br)c3)nn2)cc1)c1ccc([N+](=O)[O-])cc1`, for which the inhibition of growth at 10 µM in the series on MIA PaCa-2 [1] came to 21%; in the series on HepG2 [2] it was 13%; in the series with MCF7 [3] it was 12%; with A549 [5], 28%. For the same molecule, in series [4], the inhibition at 48 h, 10 µM is 4%.

By IC50 is commonly meant the concentration needed to halve the response being measured. Low values mean higher potency, high ones lower potency. With `COc1ccc(C(=O)/C=C/c2ccc(OCc3cn(Cc4cccc(Br)c4)nn3)cc2)cc1`, the inhibition of growth at 10 µM with MIA PaCa-2 [1] worked out at 50%; in the series with HepG2 [2], 27%; in the series with MCF7 [3] it was 45%; with A549 [5], 47%. Further, the IC50 was 20 µM in the series on MCF7 [6]; 15 µM with A549 [7]; 60 µM in the series on HepG2 [8]; 10 µM in the series on MIA PaCa-2 [9]; more than 100 µM in [10]. Also, in series [4], the inhibition at 48 h, 10 µM is 3%.

On to `Oc1cccc(-c2nc(N3CCOCC3)c3oc4ncccc4c3n2)c1` [PI-103], for which the inhibition of growth at 10 µM in the series with MIA PaCa-2 [1] came out at 93%; in the series with HepG2 [2] it was 65%; in the series on MCF7 [3] it was 97%; in the series with A549 [5] it was 89%. The IC50 in the series with MCF7 [6] is 3 µM; in the series on A549 [7] it was 4 µM; with HepG2 [8] it was 8 µM; in the series with MIA PaCa-2 [9], 6 µM; in series [10], more than 50 µM. Besides, the inhibition at 48 h, 10 µM in series [4] was found to be 25%.

`O=C(/C=C/c1ccc(OCc2cn(Cc3ccc(F)cc3)nn2)cc1)c1ccc(Br)cc1`: the inhibition of growth at 10 µM with MIA PaCa-2 [1] is 32%; in the series with HepG2 [2] it was 22%; with MCF7 [3] it was 37%; in the series on A549 [5], 43%. Further, the inhibition at 48 h, 10 µM in [4] was 7%.

Consider `O=C(/C=C/c1ccc(OCc2cn(Cc3cccc(F)c3)nn2)cc1)c1ccc(Br)cc1`, for which the inhibition of growth at 10 µM came out at 34% in the series with MIA PaCa-2 [1], 34% in the series with HepG2 [2], 42% with MCF7 [3] and 37% with A549 [5]. Further, the inhibition at 48 h, 10 µM in series [4] was 4%.

On to `COc1ccc(C(=O)/C=C/c2ccc(OCc3cn(Cc4ccccc4Br)nn3)cc2)cc1`, for which the inhibition of growth at 10 µM with MIA PaCa-2 [1] was 50%; with HepG2 [2] it was 44%; with MCF7 [3] it was 60%; in the series on A549 [5], 52%. In addition, the IC50 in the series with MCF7 [6] is 7 µM; with A549 [7], 10 µM; with HepG2 [8] it was 20 µM; in the series with MIA PaCa-2 [9], 10 µM; in series [10], more than 100 µM. Also, the inhibition at 48 h, 10 µM in series [4] amounted to 7%.

Turning to `O=C(/C=C/c1ccc(OCc2cn(Cc3ccccc3)nn2)cc1)c1ccc(Br)cc1`, the inhibition of growth at 10 µM in the series with MIA PaCa-2 [1] amounted to 44%; with HepG2 [2], 22%; with MCF7 [3], 34%; in the series on A549 [5] it was 34%. Also, the inhibition at 48 h, 10 µM in [4] turned out to be 7%.

Consider `O=C(/C=C/c1ccc(OCc2cn(Cc3cccc(F)c3)nn2)cc1)c1ccc([N+](=O)[O-])cc1`, for which the inhibition of growth at 10 µM in the series on MIA PaCa-2 [1] stood at 32%; with HepG2 [2], 43%; in the series on MCF7 [3], 30%; with A549 [5], 33%. Also, the inhibition at 48 h, 10 µM in [4] came to 5%.

Consider `O=C(/C=C/c1ccc(OCc2cn(Cc3ccccc3F)nn2)cc1)c1ccc(Br)cc1`, for which the inhibition of growth at 10 µM in the series with MIA PaCa-2 [1] came to 28%; in the series on HepG2 [2] it was 29%; with MCF7 [3], 38%; with A549 [5], 38%. In addition, the inhibition at 48 h, 10 µM in [4] was 8%.

For `C#CCOc1ccc(/C=C/C(=O)c2ccc(OC)cc2)cc1`, the inhibition of growth at 10 µM in the series on MIA PaCa-2 [1] was found to be 32%; in the series with HepG2 [2] it was 25%; with MCF7 [3] it was 32%; in the series on A549 [5], 27%. Further, the inhibition at 48 h, 10 µM in series [4] came out at 8%.

As for `COc1ccc(C(=O)/C=C/c2ccc(OCc3cn(Cc4ccccc4F)nn3)cc2)cc1`, the inhibition of growth at 10 µM came to 19% in the series on MIA PaCa-2 [1], 33% in the series on HepG2 [2], 32% in the series on MCF7 [3] and 21% with A549 [5]. Moreover, the inhibition at 48 h, 10 µM in [4] was 11%.

With `COc1ccc(C(=O)/C=C/c2ccc(OCc3cn(Cc4ccc(F)cc4)nn3)cc2)cc1`, the inhibition of growth at 10 µM with MIA PaCa-2 [1] is 6%; with HepG2 [2], 21%; with MCF7 [3], 15%; in the series with A549 [5] it was 33%. Further, the “growth inhibition (GI)” value in [4] is “Non-Toxic”.

For `O=C(/C=C/c1ccc(OCc2cn(Cc3ccccc3)nn2)cc1)c1ccc([N+](=O)[O-])cc1`, the “growth inhibition (GI)” value in the series on MIA PaCa-2 [1], in the series on HepG2 [2], in the series with MCF7 [3] and with A549 [5] was “inactive” throughout. Besides, in series [4], the “growth inhibition (GI)” value was “Non-Toxic”.

As for `C#CCOc1ccc(/C=C/C(=O)c2ccc(Br)cc2)cc1`, the inhibition of growth at 10 µM in the series on MIA PaCa-2 [1] turned out to be 34%; with HepG2 [2], 22%; with MCF7 [3] it was 45%; with A549 [5], 34%. Moreover, in [4], the inhibition at 48 h, 10 µM was determined as 9%.

`COc1ccc(C(=O)/C=C/c2ccc(OCc3cn(Cc4ccc(Br)cc4)nn3)cc2)cc1`: the inhibition of growth at 10 µM in the series on MIA PaCa-2 [1] worked out at 56%; in the series with HepG2 [2], 59%; in the series with MCF7 [3], 53%; with A549 [5], 50%. For the same molecule, the concentration for half-maximal inhibition (IC50) in the series with MCF7 [6] was 9 µM; with A549 [7] it was 10 µM; with HepG2 [8], 8 µM; in the series on MIA PaCa-2 [9], 8 µM; in [10] it was more than 100 µM. Further, the inhibition at 48 h, 10 µM in series [4] was 2%.

Turning to `O=C(/C=C/c1ccc(OCc2cn(Cc3ccccc3Br)nn2)cc1)c1ccc([N+](=O)[O-])cc1`, the inhibition of growth at 10 µM with MIA PaCa-2 [1] was determined as 34%; with HepG2 [2], 32%; in the series on MCF7 [3] it was 43%; in the series with A549 [5], 42%. Also, the inhibition at 48 h, 10 µM in series [4] worked out at 2%.

With `COc1ccc(C(=O)/C=C/c2ccc(OCc3cn(Cc4cccc(F)c4)nn3)cc2)cc1`, the inhibition of growth at 10 µM in the series with MIA PaCa-2 [1] was found to be 48%; in the series with HepG2 [2] it was 22%; in the series with MCF7 [3], 41%; in the series on A549 [5] it was 56%. For the same molecule, the IC50 is 55 µM in the series with MCF7 [6]; 9 µM in the series on A549 [7]; 85 µM in the series with HepG2 [8]; 15 µM in the series on MIA PaCa-2 [9]; more than 100 µM in series [10]. Besides, the inhibition at 48 h, 10 µM in series [4] worked out at 12%.

With `O=C(/C=C/c1ccc(OCc2cn(Cc3ccccc3F)nn2)cc1)c1ccc([N+](=O)[O-])cc1`, the inhibition of growth at 10 µM with MIA PaCa-2 [1] was found to be 22%; in the series with HepG2 [2], 22%; with MCF7 [3] it was 33%; with A549 [5] it was 43%. Moreover, the inhibition at 48 h, 10 µM in series [4] worked out at 12%.

For the origin of these results see ChEMBL document CHEMBL4000203, “Green synthesis and anticancer potential of chalcone linked-1,2,3-triazoles” (Eur J Med Chem, 2017).
